The values that follow come from patent publication EP4559911A1, “NOVEL HETEROCYCLIC COMPOUND AND PHARMACEUTICAL COMPOSITION FOR INHIBITING AUTOTAXIN COMPRISING THE SAME” (Nextgen Bioscience Co., Ltd., priority 2022, dated 2024).

The structures appear in SMILES notation.

The target in the experiment is human Autotaxin protein (Homo sapiens, UniProt Q13822). Kind of experiment: Evaluation of the inhibitory activity against human Autotaxin protein (18:1 LysoPC substrate, choline assay kit, absorbance at 570 nm). Format: biochemical. As to conditions: compound at 500nM; 2 hours at 37 °C; % inhibition = (1 - absorbance test group / absorbance control group) X 100. As for the experimental part: Solutions of each compound synthesized (80 uM, 100% dimethyl sulfoxide) were sequentially diluted 5-fold with dimethyl sulfoxide to prepare 6 concentrations. Each concentration of the compound was diluted 2-fold with 1x test buffer (50 mM Tris-Cl (pH 8.0), 5 mM KCl, 1 mM CaCl2, 1 mM MgCl2, 140 mM NaCl, deionized water, 1 mg/mL BSA), and 1 uL (1.25% dimethyl sulfoxide) of this diluted mixture was dispensed into each well of a 96-well clear round-bottom plate. 9 uL of 1x test buffer was added, and 20 uL of 240 nM human autotaxin protein (buffer: 50 mM Tris-HCl, pH 8.0, with 150 mM sodium chloride and 20% glycerol) was added. 10 uL of sonicated 360 uM 18:1 LysoPC (diluted with 1x assay buffer) was added. The reaction was performed for 2 hours in a shaking incubator at 37 °C, and a secondary reaction mixture (choline assay kit, KA1662) (65 uL of 1x assay buffer: 1 uL of choline oxidase: 1 uL of dye probe) was prepared. 60 uL of the secondary reaction mixture was added to the plate where the reaction was performed, and incubated for 30 minutes in a shaker. The absorbance value was measured at a wavelength of 570 nm using a SpectraMax iD3 microplate reader. The percentage inhibition activity value (% inhibition) was calculated by the formula: (1 - absorbance value test group / absorbance value control group) X 100.
For orientation: inhibition means the percentage by which the read-out fell short of the control. Turning to `Fc1cc2c(cc1F)CC(Nc1ncc(-c3nnc(N4CC(F)(c5c[nH]nn5)C4)o3)cn1)C2` [Example 56, N-(5,6-difluoro-2,3-dihydro-1H-inden-2-yl)-5-(5-(3-fluoro-3-(1H-1,2,3-triazol-4-yl)azetidin-1-yl)-1,3,4-oxadiazol-2-yl)pyrimidin-2-amine], the inhibition at 0.5 µM is 85.2%. Compound `Clc1ccc(CCNc2ncc(-c3nnc(N4CCC(c5c[nH]nn5)C4)o3)cn2)cc1` (centres unmarked) [Example 92, 5-(5-(3-(1H-1,2,3-triazol-4-yl)pyrrolidin-1-yl)-1,3,4-oxadiazol-2-yl)-N-(4-chlorophenethyl)pyrimidin-2-amine] displayed an inhibition at 0.5 µM of 85.5%. Consider `COC(=O)C1CCN(c2nnc(-c3cnc(NC4Cc5cc(F)c(F)cc5C4)nc3)o2)C1` (centres unmarked) [Example 15, methyl 1-(5-(2-((5,6-difluoro-2,3-dihydro-1H-inden-2-yl)amino)pyrimidin-5-yl)-1,3,4-oxadiazol-2-yl)pyrrolidine-3-carboxylate], for which at 0.5 µM the inhibition was 9.5%.

For `CC1(c2c[nH]nn2)CN(C(=O)/C=C/c2cnc(NC3Cc4ccccc4C3)nc2)C1` [Example 82, (E)-3-(2-((2,3-dihydro-1H-inden-2-yl)amino)pyrimidin-5-yl)-1-(3-methyl-3-(1H-1,2,3-triazol-4-yl)azetidin-1-yl)prop-2-en-1-one], the inhibition at 0.5 µM was determined as 98%. The compound `CC(C)(C)C(=O)OCn1cc(C2CN(c3nnc(-c4cnc(NC5Cc6cccnc6C5)nc4)o3)C2)nn1` (centres unmarked) [Example 73, (4-(1-(5-(2-((6,7-dihydro-5H-cyclopenta[b]pyridin-6-yl)amino)pyrimidin-5-yl)-1,3,4-oxadiazol-2-yl)azetidin-3-yl)-1H-1,2,3-triazol-1-yl)methyl pivalate] showed an inhibition at 0.5 µM of 1.2%. For `Cc1ncn(C2CCN(c3nnc(-c4cnc(NC5Cc6cc(F)c(F)cc6C5)nc4)o3)C2)n1` (centres unmarked) [Example 29, N-(5,6-difluoro-2,3-dihydro-1H-inden-2-yl)-5-(5-(3-(3-methyl-1H-1,2,4-triazol-1-yl)pyrrolidin-1-yl)-1,3,4-oxadiazol-2-yl)pyrimidin-2-amine], testing at 0.5 µM gave an inhibition of 9.2%. As for `Fc1cc(F)cc(CNc2ncc(-c3nnc(N4CCC(c5c[nH]nn5)C4)o3)cn2)c1` (centres unmarked) [Example 21, 5-(5-(3-(1H-1,2,3-triazol-4-yl)pyrrolidin-1-yl)-1,3,4-oxadiazol-2-yl)-N-(3,5-difluorobenzyl)pyrimidin-2-amine], the inhibition at 0.5 µM came out at 72.5%. In turn, `CC1(c2c[nH]nn2)CCN(C(=O)/C=C/c2cnc(NC3Cc4ccccc4C3)nc2)C1` (centres unmarked) [Example 34, (E)-3-(2-((2,3-dihydro-1H-inden-2-yl)amino)pyrimidin-5-yl)-1-(3-methyl-3-(1H-1,2,3-triazol-4-yl)pyrrolidin-1-yl)prop-2-en-1-one] had an inhibition at 0.5 µM of 88.4%. Consider `COc1ccc2c(c1)CC(Nc1ncc(-c3nnc(N4CCC(c5cn(COC(=O)C(C)(C)C)nn5)C4)o3)cn1)C2` (centres unmarked) [Example 12, (4-(1-(5-(2-((5-methoxy-2,3-dihydro-1H-inden-2-yl)amino)pyrimidin-5-yl)-1,3,4-oxadiazol-2-yl)pyrrolidin-3-yl)-1H-1,2,3-triazol-1-yl)methyl pivalate], for which the inhibition at 0.5 µM is 4.1%. Under `CC1(c2c[nH]nn2)CN(C(=O)/C=C/c2cnc(NC3Cc4cc(F)c(F)cc4C3)nc2)C1` [Example 78, (E)-3-(2-((5,6-difluoro-2,3-dihydro-1H-inden-2-yl)amino)pyrimidin-5-yl)-1-(3-methyl-3-(1H-1,2,3-triazol-4-yl)azetidin-1-yl)prop-2-en-1-one] stands 99.1%.

`COC(=O)C1CN(c2nnc(-c3cnc(NC4Cc5cc(F)c(F)cc5C4)nc3)o2)C1` [Example 47, methyl 1-(5-(2-((5,6-difluoro-2,3-dihydro-1H-inden-2-yl)amino)pyrimidin-5-yl)-1,3,4-oxadiazol-2-yl)azetidine-3-carboxylate] registered an inhibition at 0.5 µM of 7.5%.

With `c1ccc2c(c1)CC(Nc1ncc(-c3nnc(N4CCC(c5c[nH]nn5)C4)o3)cn1)C2` (centres unmarked) [Example 1, 5-(5-(3-(1H-1,2,3-triazol-4-yl)pyrrolidin-1-yl)-1,3,4-oxadiazol-2-yl)-N-(2,3-dihydro-1H-inden-2-yl)pyrimidin-2-amine], the inhibition at 0.5 µM amounted to 98%.

Compound `O=C(O)CC1CN(c2nnc(-c3cnc(NC4Cc5cc(F)c(F)cc5C4)nc3)o2)C1` [Example 53, 2-(1-(5-(2-((5,6-difluoro-2,3-dihydro-1H-inden-2-yl)amino)pyrimidin-5-yl)-1,3,4-oxadiazol-2-yl)azetidin-3-yl)acetic acid] came in with an inhibition at 0.5 µM of 24.7%.

Compound `CC(C)(C)C(=O)OCn1cc(C2CCN(c3nnc(-c4cnc(NCc5ccc6c(c5)OCO6)nc4)o3)C2)nn1` (centres unmarked) [Example 5, (4-(1-(5-(2-((benzo[d][1,3]dioxol-5-ylmethyl)amino)pyrimidin-5-yl)-1,3,4-oxadiazol-2-yl)pyrrolidin-3-yl)-1H-1,2,3-triazol-1-yl)methyl pivalate] showed an inhibition at 0.5 µM of 7.6%. `c1cc2c(cn1)CC(Nc1ncc(-c3nnc(N4CC(c5c[nH]nn5)C4)o3)cn1)C2` (centres unmarked) [Example 85, N-(5-(5-(3-(1H-1,2,3-triazol-4-yl)azetidin-1-yl)-1,3,4-oxadiazol-2-yl)pyrimidin-2-yl)-6,7-dihydro-5H-cyclopenta[c]pyridin-6-amine] showed an inhibition at 0.5 µM of 19.8%. For `CC(C)(C)C(=O)OCn1cc(C2CCN(c3nnc(-c4cnc(NC5Cc6cc(F)c(F)cc6C5)nc4)o3)C2)nn1` (centres unmarked) [Example 2, (4-(1-(5-(2-((5,6-difluoro-2,3-dihydro-1H-inden-2-yl)amino)pyrimidin-5-yl)-1,3,4-oxadiazol-2-yl)pyrrolidin-3-yl)-1H-1,2,3-triazol-1-yl)methyl pivalate], the inhibition at 0.5 µM turned out to be 3%. Regarding `Brc1ccc2c(c1)CC(Nc1ncc(-c3nnc(N4CC(c5c[nH]nn5)C4)o3)cn1)C2` (centres unmarked) [Example 64, 5-(5-(3-(1H-1,2,3-triazol-4-yl)azetidin-1-yl)-1,3,4-oxadiazol-2-yl)-N-(5-bromo-2,3-dihydro-1H-inden-2-yl)pyrimidin-2-amine], the inhibition at 0.5 µM came to 100%. As for `O=C(O)CC1CCN(c2nnc(-c3cnc(NC4Cc5cc(F)c(F)cc5C4)nc3)o2)C1` (centres unmarked) [Example 25, 2-(1-(5-(2-((5,6-difluoro-2,3-dihydro-1H-inden-2-yl)amino)pyrimidin-5-yl)-1,3,4-oxadiazol-2-yl)pyrrolidin-3-yl)acetic acid], testing at 0.5 µM gave an inhibition of 1.8%. `Cn1cc(C2CCN(c3nnc(-c4cnc(NC5Cc6cc(F)c(F)cc6C5)nc4)o3)C2)nn1` (centres unmarked) [Example 35, N-(5,6-difluoro-2,3-dihydro-1H-inden-2-yl)-5-(5-(3-(1-methyl-1H-1,2,3-triazol-4-yl)pyrrolidin-1-yl)-1,3,4-oxadiazol-2-yl)pyrimidin-2-amine] gave an inhibition at 0.5 µM of 1.3%.

In turn, `O=C(CCc1cnc(NC2Cc3cc(F)c(F)cc3C2)nc1)N1CCC(c2c[nH]nn2)C1` (centres unmarked) [Example 10, 1-(3-(1H-1,2,3-triazol-4-yl)pyrrolidin-1-yl)-3-(2-((5,6-difluoro-2,3-dihydro-1H-inden-2-yl)amino)pyrimidin-5-yl)propan-1-one] came in with an inhibition at 0.5 µM of 18.6%. As to `FC1(c2c[nH]nn2)CN(c2nnc(-c3cnc(NC4Cc5ccc(Br)cc5C4)nc3)o2)C1` (centres unmarked) [Example 89, N-(5-bromo-2,3-dihydro-1H-inden-2-yl)-5-(5-(3-fluoro-3-(1H-1,2,3-triazol-4-yl)azetidin-1-yl)-1,3,4-oxadiazol-2-yl)pyrimidin-2-amine], the inhibition at 0.5 µM is 84.9%. For the compound `Fc1cc2c(cc1F)CC(Nc1ncc(-c3nnc(N4CC(c5nnc(C(F)(F)F)o5)C4)o3)cn1)C2` [Example 58, N-(5,6-difluoro-2,3-dihydro-1H-inden-2-yl)-5-(5-(3-(5-(trifluoromethyl)-1,3,4-oxadiazol-2-yl)azetidin-1-yl)-1,3,4-oxadiazol-2-yl)pyrimidin-2-amine], the inhibition at 0.5 µM is 1%.

As to `Fc1cc2c(cc1F)CC(Nc1cnc(-c3nnc(N4CCC(c5c[nH]nn5)C4)o3)cn1)C2` (centres unmarked) [Example 14, 5-(5-(3-(1H-1,2,3-triazol-4-yl)pyrrolidin-1-yl)-1,3,4-oxadiazol-2-yl)-N-(5,6-difluoro-2,3-dihydro-1H-inden-2-yl)pyrazin-2-amine], 0.5 µM produced 23.3% inhibition. For the compound `O=C(/C=C/c1cnc(NC2Cc3cc(F)c(F)cc3C2)nc1)N1CCC(c2c[nH]nn2)C1` (centres unmarked) [Example 9, (E)-1-(3-(1H-1,2,3-triazol-4-yl)pyrrolidin-1-yl)-3-(2-((5,6-difluoro-2,3-dihydro-1H-inden-2-yl)amino)pyrimidin-5-yl)prop-2-en-1-one], the inhibition at 0.5 µM was found to be 94.2%. As to `Fc1ccc2c(c1)CC(Nc1ncc(-c3nnc(N4CCC(c5c[nH]nn5)C4)o3)cn1)C2` (centres unmarked) [Example 36, 5-(5-(3-(1H-1,2,3-triazol-4-yl)pyrrolidin-1-yl)-1,3,4-oxadiazol-2-yl)-N-(5-fluoro-2,3-dihydro-1H-inden-2-yl)pyrimidin-2-amine], at 0.5 µM the inhibition was 97.4%.

Consider `Fc1cc2c(cc1F)CC(Nc1ncc(-c3cc(N4CCC(c5c[nH]nn5)C4)no3)cn1)C2` (centres unmarked) [Example 18, 5-(3-(3-(1H-1,2,3-triazol-4-yl)pyrrolidin-1-yl)isoxazol-5-yl)-N-(5,6-difluoro-2,3-dihydro-1H-inden-2-yl)pyrimidin-2-amine], for which at 0.5 µM the inhibition was 95.3%.
